Measured values taken from patent publication US11952362B2, “Compositions and methods for treating epigenetic disease” (The Regents of the University of California, priority 2018, dated 2024).

Columns and labels:
Type in all cases: cell-based
[1] = tested on: CAPAN-2 pancreatic cancer cell line; assay: Cell viability assay (CellTiter Glo), CAPAN-2; details: Homo sapiens, 120 h; CAPAN-2, 20 uM, day 5; read-out: % growth inhibition
Experimental: (§1) Pancreatic cancer cell lines (MIA PaCa-2 and CAPAN-2) were purchased from ATCC. MIA PaCa-2 were grown in DMEM and CAPAN-2 in McCoy's 5A (Gibco). Colon cancer cell lines (SW480 and HT-29) were purchased from ATCC. SW480 were grown in Leibovitz's L-15 (ATCC) and HT-29 in McCoy's 5A (Gibco). Lung cancer cell lines (NCI 460 and NCI 1975) were purchased from ATCC and grown in RPMI 1640 (Gibco). PC-3 prostate cancer cell line was purchased from ATCC and grown in F-12K (ATCC). Bladder cancer cell line 5637 was purchased from ATCC and RT-112 was purchased from Sigma-Aldrich and was grown in RPMI 1640 (Gibco). […] IL1B and TNFA mRNA levels were measured by qPCR analysis as described previously (Fang K et al. Am J Pathol, 188(3):586-99, 2018).
(§2) 1.8×10^3 cells/well were plated in quadruplicates in 96-well plate and treated with exogenously added MJK analogues 6 hours after plating. […] Cell growth was assessed 1, 3, 5 or 7 days after plating using the CellTiter Glo Luminescence Cell Viability Assay (Promega) according to manufacturer's protocol. For the experiments where the effect of combinatorial treatment of MJK-004 analogues with chemotherapy was assessed, treatment of cells with gemcitabine (10 nM) or 5-fluouracil (2000 nM) was performed one day after MJK-004 treatment and the cells were further treated with exogenously added MJK analogues 2 days later. […]

[2] = tested on: NCI-460 lung cancer cell line; assay: Cell viability assay (CellTiter Glo), NCI-460; details: 120 h; NCI-460, 20 uM, day 5; read-out: % growth inhibition
Experimental: as §1, §2

[3] = tested on: MIA PaCa-2 pancreatic cancer cell line; assay: Cell viability assay (CellTiter Glo), MIA PaCa-2; details: Homo sapiens, 120 h; MIA PaCa-2, 20 uM, day 5; read-out: % growth inhibition
Experimental: as §1, §2

Structure (SMILES): Cn1c(/C=C/C(=O)NO)ccc1/C=C/C(=O)c1cccc(F)c1 [MJK001, (E)-3-(5-((E)-3-(3-Fluorophenyl)-3-oxoprop-1-en-1-yl)-1-methyl-1H-pyrrol-2-yl)-N-hydro-xyacrylamide]
- inhibition at 20 µM [1]: 42.7%
- inhibition at 20 µM [2]: 3.42%
- inhibition at 20 µM [3]: 0%
